In patent publication US9889126B2, “Use of naratriptan in the treatment of rosacea” (GALDERMA RESEARCH & DEVELOPMENT, priority 2013, dated 2018):

Assays:
human subcutaneous veins = experiment: Vascular tonicity of human subcutaneous veins ex vivo, myography; format: cell-based; details: for EC50 / Emax (% max. contraction vs. 80 mM KCL): human subcutaneous vein, n=1; for EC50: dose-response
Procedure: (§1) Human subcutaneous veins are isolated from healthy human skin derived from plastic surgery operative waste (abdominal plasty). On receipt the skin sample is held at 4° C. in a receptacle containing physiological saline solution (PSS) 1× at pH=7.4. Dissection, isolation and mounting of the veins are conducted in cold PSS pH=7.4 using straight forceps and a stereomicroscope. Once the vein is isolated and cleaned of surrounding fat and conjunctive tissue, a segment 2 mm in length and diameter of between 100 and 600 μm is mounted in the myograph chamber between two 40 μm tungsten wires attached to removable jaws connected to the tension sensor and held in physiological saline solution (PSS) at pH=7.4 and 37° C. To perform the myography study the vein is placed at working pre-tension (g) corresponding to physiological pressure of 18 mmHg. Pre-tensioning is obtained by mechanical action to draw apart the tungsten wires (40 μm). The viability of the vessel is verified by depolarising the membrane of the vessel smooth muscle cells by increasing the concentration of potassium in the chamber. To do so the PSS solution contained in each chamber is replaced by a solution containing 80 mM KCl at pH=7.4 and pre-heated to 37° C. This step must be repeated twice with 1×PSS washing to cause relaxation between each contraction. At this stage if there is no change in measured tension the isolated vessel is considered non-viable. Naratriptan was evaluated by dose-response (n=1) to determine its maximum contraction intensity (Emax) and strength (EC50). The vessel was treated with increasing successive doses of product added every 3 minutes to the myograph chamber. Tension data (g) are successively converted to: • Tension (mN) 1 g=9.81 mN • Tension applied to the vessel wall (mN/mm): by dividing the tension value in mN by twice the length of the vessel i.e. 4 mm.
(§2) Data are then expressed for the vasoconstrictor product in percentage contraction (%) taking as 100% the value obtained for treatment with 80 mM KCl at step 1 to verify vessel viability.
(§3) The method used for this study is identical to the method used in Example 1. To perform myographic studies the vein is placed at a pre-tension (g) corresponding to physiological pressure of 18 mmHg while the artery is placed at a pre-tension of 90 mmHg since an artery wall is thicker than a vein wall.
(§4) The myograph apparatus has four independent chambers. Therefore four vessel segments were mounted in parallel in each study. Each compound was subjected to dose-response evaluation for each type of vessel (n=1). The vessel was therefore treated with successive, increasing concentrations of product added every 3 minutes to the myograph chamber. The tested compounds were naratriptan, sumatriptan, almotriptan and Rizatriptan.

[1] = Release and penetration into dermatomized human skin (Franz cells); format: in vitro ADME; details: 2% in PBS; for Mass balance: mean
[2] = tested on: human subcutaneous artery; experiment: Vascular tonicity of human subcutaneous arteries ex vivo, myography; format: cell-based; details: for EC50: sc, dose-response
Procedure: as §1, §2, §3, §4

[3] = tested on: neurogenic inflammation induced in mouse ear; experiment: Neurogenic inflammation assay, mouse ear, reziniferatoxin (RTX); format: in vivo
Procedure: The compound was then tested in a water/ethanol carrier to increase solubility.

SMILES	EC50 (human subcutaneous veins)	Emax (% max. contraction vs. 80 mM KCL) (human subcutaneous veins)	Total skin [1]	Mass balance [1]	Persistent effect on the human vein after successive washings, time after removal of the compound (human subcutaneous veins; Example 1, after removal of compound from the chamber)	Emax (% max. contraction vs. 80 mM KCl) ([2]; n=1)	EC50 ([2]; n=1)	Inhibition of neurogenic inflammation ([3]; 1% in acetone carrier, up to 45 minutes after treatment, single RTX application)	Inhibition of neurogenic inflammation ([3]; 1% topical in water/ethanol carrier, treatment time 15 minutes)	Total skin ([1]; listed as Naratriptan hydrochloride)	Emax (% max. contraction vs. 80 mM KCl) ([2]; n=1, listed as sumatriptan)
CN(C)CCc1c[nH]c2ccc(CS(=O)(=O)N3CCCC3)cc12 [Almotriptan, almotriptan]	62 nM	97%	1.86 % applied dose	94.16 % applied dose	–	–	–	–	–	–	–
CNS(=O)(=O)CCc1ccc2[nH]cc(C3CCN(C)CC3)c2c1 [Naratriptan, N-methyl-2-[3-(1-methylpiperidin-4-yl)-1H-indol-5-yl]ethanesulfonamide]	13 nM	105%	3.46 % applied dose	91.22 % applied dose	≤ 90 min	82%	20 nM	significantly inhibited	significant inhibition	3.61 % applied dose	–
CN(C)CCc1c[nH]c2ccc(Cn3cncn3)cc12 [Rizatriptan, rizatriptan]	93 nM	94%	–	–	–	54%	217 nM	–	–	–	–
CNS(=O)(=O)Cc1ccc2[nH]cc(CCN(C)C)c2c1 [Sumatriptan, sumatriptan]	65 nM	101%	–	–	–	61%	138 nM	–	–	–	70%
